In US20250042886A1, “BIS(HETERO)ARYL THIOETHER OXADIAZINES AS FUNGICIDAL COMPOUNDS” (Bayer Aktiengesellschaft, priority 2021, published 2025):

Assays:
[1] = system: Botrytis cinerea; test: In vivo preventive test on Botrytis cinerea (grey mould); conditions: 500 ppm of active ingredient, sprayed on young gherkin or cabbage plants 24 h before inoculation, evaluated 4 to 5 days after inoculation, read-out: efficacy
Protocol: (§1) The active ingredients were made soluble and homogenized in a mixture of Dimethyl sulfoxide/Acetone//Tween® 80 and then diluted in water to the desired concentration. The young plants of gherkin or cabbage were treated by spraying the active ingredient prepared as described above. Control plants were treated only with an aqueous solution of Acetone/Dimethyl sulfoxide/Tween® 80. After 24 hours, the plants were contaminated by spraying the leaves with an aqueous suspension of Botrytis cinerea spores.

[2] = system: Colletotrichum lindemuthianum; test: In vivo preventive test on Colletotrichum lindemuthianum (leaf spot on bean); conditions: 168 h, 500 ppm of active ingredient, sprayed on young bean plants 24 h before inoculation, evaluated 7 days after inoculation, read-out: efficacy
Protocol: as §1, with “B-4. […] The active” for “The active”, “plants of bean were treated” for “plants of gherkin or cabbage were treated”, “suspension of Colletotrichum lindemuthianum spores.” for “suspension of Botrytis cinerea spores.”

[3] = Measurement of Log P values by HPLC on reversed phase columns (EEC directive 79/831 Annex V.A8); type: physicochemical; conditions: Table 1, compounds of formula (I); method [a]: LC-UV, acidic range, 0.1% formic acid in water and acetonitrile
[4] = system: Colletotrichum lindemuthianum; test: Colletotrichum lindemuthianum in vitro cell test; type: cell-based; conditions: 144 h, liquid culture, 6 days incubation, read-out: efficacy (inhibition of fungal growth); for inhibition at 20 ppm: 20 ppm of active ingredient; for inhibition at 50 µM: 50 μMol/l of active ingredient
Method in brief: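 Inhibition of spore germination and mycelium growth, as absorbance relative to untreated wells, was read on day 6. Compounds from DMSO stocks were added to a spore suspension in glucose/peptone/yeast extract broth.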

[5] = system: Alternaria brassicae; test: In vivo preventive test on Alternaria brassicae (leaf spot on radish or cabbage); conditions: 500 ppm of active ingredient, sprayed on young radish or cabbage plants 24 h before inoculation, evaluated 3 to 4 days after inoculation, read-out: efficacy
Protocol: as §1, with “B-1. […] The active” for “The active”, “plants of radish or cabbage” for “plants of gherkin or cabbage”, “suspension of Alternaria brassicae spores.” for “suspension of Botrytis cinerea spores.”

[6] = system: Pyricularia oryzae; test: microbe, parasite or virus in culture; type: cell-based; conditions: 120 h, read-out: efficacy (inhibition of fungal growth), 50 μMol/l of active ingredient, liquid culture, 5 days incubation
[7] = system: Alternaria alternata; test: Alternaria alternata in vitro cell test; type: cell-based; conditions: 120 h, 50 μMol/l of active ingredient, liquid culture, 5 days incubation, read-out: efficacy (inhibition of fungal growth)
Protocol: (§2) B-5. Alternaria alternata In Vitro Cell Test • Solvent: DMSO • Culture medium: 14.6 g anhydrous D-glucose (VWR), 7.1 g Mycological Peptone (Oxoid), 1.4 g granulated Yeast Extract (Merck), QSP 1 liter • Inoculum: spores suspension Fungicides were solubilized in DMSO and the solution used to prepare the required range of concentrations. […] A spore suspension of A. alternata was prepared and diluted to the desired spore density. Fungicides were evaluated for their ability to inhibit spore germination and mycelium growth in liquid culture assay. The compounds were added in the desired concentration to the culture medium with spores. After 5 days incubation, fungi-toxicity of compounds was determined by spectrometric measurement of mycelium growth. Inhibition of fungal growth was determined by comparing the absorbance values in wells containing the fungicides with the absorbance in control wells without fungicides.

[8] = system: Pyrenophora teres; test: Pyrenophora teres in vitro cell test; type: cell-based; conditions: 144 h, 50 μMol/l of active ingredient, liquid culture, 6 days incubation, read-out: efficacy (inhibition of fungal growth)
Protocol: as §2, with “B-8. Pyrenophora teres In” for “B-5. Alternaria alternata In”, “Inoculum: spore” for “Inoculum: spores”, “of P. teres” for “of A. alternata”, “After 6” for “After 5”

[9] = system: Botrytis cinerea; test: Botrytis cinerea in vitro cell test; type: cell-based; conditions: 144 h, 50 μMol/l of active ingredient, liquid culture, 6 days incubation, read-out: efficacy (inhibition of fungal growth)
Method in brief: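 Liquid-culture germination/growth test: spore suspension in synthetic medium (salts, urea, KNO3, saccharose, trace elements, thiamine, biotin) with compound dissolved in DMSO. Absorbance of mycelial growth measured at day 6, compared with untreated wells to give inhibition.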

[10] = system: Fusarium culmorum; test: Fusarium culmorum in vitro cell test; type: cell-based; conditions: 120 h, 50 μMol/l of active ingredient, liquid culture, 5 days incubation, read-out: efficacy (inhibition of fungal growth)
Protocol: B-10. Fusarium culmorum In Vitro Cell Test • Solvent: DMSO • Culture medium: 1 g KH2PO4 (VWR), 1 g K2HPO4 (VWR), 0.5 g Urea (VWR), 3 g KNO3 (Prolabo), 10 g saccharose (VWR), 0.5 g MgSO4, 7H2O (Sigma), 0.07 g CaCl2, 2H2O (Prolabo), 0.2 mg MnSO4, H2O (Sigma), 0.6 mg CuSO4, 5H2O (Sigma), 7.9 mg ZnSO4, 7H2O (Sigma), 0.1 mg H3BO3 (Merck), 0.14 mg NaMoO4, 2H2O (Sigma), 2 mg thiamine (Sigma), 0.1 mg biotine (VWR), 4 mg FeSO4, 7H2O (Sigma), QSP 1 liter • Inoculum: spores suspension
Fungicides were solubilized in DMSO and the solution used to prepare the required range of concentrations. The final concentration of DMSO used in the assay was ≤1%.
A spore suspension of F. culmorum was prepared and diluted to the desired spore density.
Fungicides were evaluated for their ability to inhibit spore germination and mycelium growth in liquid culture assay. The compounds were added in the desired concentration to the culture medium with spores. After 5 days incubation, fungi-toxicity of compounds was determined by spectrometric measurement of mycelium growth. Inhibition of fungal growth was determined by comparing the absorbance values in wells containing the fungicides with the absorbance in control wells without fungicides.

| SMILES | pest or weed control at 500 ppm [1] [%] | pest or weed control at 500 ppm [2] [%] | chromatographic logP [3] | inhibition at 20 ppm [4] [%] | pest or weed control at 500 ppm [5] [%] | inhibition at 50 µM [4] [%] | inhibition at 50 µM [6] [%] | inhibition at 50 µM [7] [%] | inhibition at 50 µM [8] [%] | inhibition at 50 µM [9] [%] | inhibition at 50 µM [10] [%] |
| --- | --- | --- | --- | --- | --- | --- | --- | --- | --- | --- | --- |
| FC(F)(F)c1ccc(Sc2nnc(Cl)cc2C2=NOC[C@@H](Cc3ccc(Cl)cc3Cl)N2)cc1 (racemic) [Compound I-003] | 90 to 100 | 70 to 79 | 4.93 |  |  |  |  |  |  |  |  |
| Cc1ccc(C[C@H]2CON=C(c3nc(C)ncc3Sc3cccc(OC(F)(F)F)c3)N2)c(Cl)c1 (racemic) [Compound I-021] |  | 70 to 79 | 5.46 | 70 to 79 |  |  |  |  |  |  |  |
| Cc1ccc(C[C@H]2CON=C(c3nc(C)ncc3Sc3cccc(OC(F)(F)F)c3)N2)c(C)c1 (racemic) [Compound I-026] |  | 80 to 89 | 5.39 | 70 to 79 |  |  |  |  |  |  |  |
| Cc1ccc(C[C@@H]2CON=C(c3cc(Cl)nnc3Sc3ccc(C(F)(F)F)cc3)N2)c(C)c1 (racemic) [Compound I-027] |  | 90 to 100 | 5.31 |  | 90 to 100 |  |  |  |  |  |  |
| Cc1ccc([C@@H]2CON=C(c3c(Sc4cccc(C(F)(F)F)c4)nnc(C)c3C)N2)s1 (racemic) [Compound I-044] | 90 to 100 | 90 to 100 | 3.36 |  |  | 90 to 100 | 80 to 89 | 70 to 79 | 90 to 100 | 90 to 100 |  |
| Cc1cc([C@H]2CON=C(c3c(Sc4cccc(F)c4)nnc(C)c3C)N2)c(C)s1 (racemic) [Compound I-050] | 90 to 100 |  | 3.16 |  | 90 to 100 | 90 to 100 | 90 to 100 | 90 to 100 | 90 to 100 | 90 to 100 | 90 to 100 |
| Cc1cc([C@H]2CON=C(c3c(Sc4ccccc4Cl)nnc(C)c3C)N2)c(C)s1 (racemic) [Compound I-059] | 90 to 100 |  | 3.31 |  | 90 to 100 |  |  | 80 to 89 | 90 to 100 | 90 to 100 |  |
| Cc1cccc(Sc2nnc3ccccc3c2C2=NOC[C@H](c3ccc(C)s3)N2)n1 (racemic) [Compound I-066] | 90 to 100 | 70 to 79 | 2.69 |  | 80 to 89 | 90 to 100 | 70 to 79 |  |  | 90 to 100 | 70 to 79 |
| Cc1ccc([C@H]2CON=C(c3c(Sc4ccccc4Cl)nnc4ccccc34)N2)s1 (racemic) [Compound I-067] | 90 to 100 |  | 3.4 |  | 90 to 100 | 80 to 89 | 70 to 79 | 90 to 100 | 90 to 100 | 90 to 100 |  |
| COc1cccc(Sc2nnc(C)c(C)c2C2=NOC[C@@H](c3cc(C)sc3C)N2)c1 (racemic) [Compound I-079] | 90 to 100 | 80 to 89 | 3.11 |  |  | 90 to 100 | 70 to 79 | 70 to 79 | 80 to 89 | 90 to 100 | 90 to 100 |
| COc1cccc(Sc2nnc3ccccc3c2C2=NOC[C@H](c3ccc(C)s3)N2)c1 (racemic) [Compound I-090] | 90 to 100 | 80 to 89 | 3.21 |  |  | 90 to 100 |  |  | 80 to 89 | 90 to 100 | 90 to 100 |
| Cc1cc([C@H]2CON=C(c3c(Sc4ccc(F)c(F)c4)nnc(C)c3C)N2)c(C)s1 (racemic) [Compound I-091] | 90 to 100 |  | 3.33 |  | 80 to 89 | 90 to 100 | 80 to 89 | 80 to 89 | 90 to 100 | 90 to 100 | 90 to 100 |
| Cc1cccc(Sc2nnc(C)c(C)c2C2=NOCC(c3ccc(C)s3)N2)c1 (racemic) [Compound I-095, (5RS)-3-[5,6-dimethyl-3-(m-tolylsulfanyl)pyridazin-4-yl]-5-(5-methyl-2-thienyl)-5,6-dihydro-4H-1,2,4-oxadiazine] | 90 to 100 | 70 to 79 | 2.99 |  | 90 to 100 | 90 to 100 | 70 to 79 |  |  | 90 to 100 | 70 to 79 |
| Cc1ccc([C@H]2CON=C(c3c(Sc4ccccc4)nnc4ccccc34)N2)s1 (racemic) [Compound I-097] | 90 to 100 |  | 3.14 |  | 80 to 89 | 90 to 100 | 80 to 89 | 80 to 89 | 90 to 100 | 90 to 100 | 80 to 89 |
| Cc1ccc([C@H]2CON=C(c3c(Sc4ccccc4C)nnc4ccccc34)N2)s1 (racemic) [Compound I-110] | 90 to 100 | 70 to 79 | 3.45 |  | 90 to 100 |  |  |  |  | 90 to 100 |  |
| Cc1ccc([C@H]2CON=C(c3c(Sc4cccc(F)c4)nnc(C)c3C)N2)s1 (racemic) [Compound I-125] |  |  | 2.83 |  |  | 90 to 100 | 80 to 89 | 70 to 79 | 80 to 89 | 90 to 100 | 90 to 100 |
| Cc1ccc([C@H]2CON=C(c3c(Sc4cccc(Cl)c4Cl)nnc4ccccc34)N2)s1 (racemic) [Compound I-131] | 90 to 100 |  | 3.8 |  | 90 to 100 | 90 to 100 | 80 to 89 | 90 to 100 | 90 to 100 | 90 to 100 |  |
